The text below walks through data of patent US20040156869A1, “2-substituted quinazolin-4-ylamine analogues” (Neurogen Corporation, priority 2002, published 2004).

In this experiment the target is human capsaicin receptor (VR1) (Homo sapiens, UniProt Q8NER1). Nature of the experiment: Capsaicin receptor binding assay ([3H]RTX competition, VR1-transfected HEK293 membranes).
Chain of human capsaicin receptor (VR1) (Q8NER1 whole entry): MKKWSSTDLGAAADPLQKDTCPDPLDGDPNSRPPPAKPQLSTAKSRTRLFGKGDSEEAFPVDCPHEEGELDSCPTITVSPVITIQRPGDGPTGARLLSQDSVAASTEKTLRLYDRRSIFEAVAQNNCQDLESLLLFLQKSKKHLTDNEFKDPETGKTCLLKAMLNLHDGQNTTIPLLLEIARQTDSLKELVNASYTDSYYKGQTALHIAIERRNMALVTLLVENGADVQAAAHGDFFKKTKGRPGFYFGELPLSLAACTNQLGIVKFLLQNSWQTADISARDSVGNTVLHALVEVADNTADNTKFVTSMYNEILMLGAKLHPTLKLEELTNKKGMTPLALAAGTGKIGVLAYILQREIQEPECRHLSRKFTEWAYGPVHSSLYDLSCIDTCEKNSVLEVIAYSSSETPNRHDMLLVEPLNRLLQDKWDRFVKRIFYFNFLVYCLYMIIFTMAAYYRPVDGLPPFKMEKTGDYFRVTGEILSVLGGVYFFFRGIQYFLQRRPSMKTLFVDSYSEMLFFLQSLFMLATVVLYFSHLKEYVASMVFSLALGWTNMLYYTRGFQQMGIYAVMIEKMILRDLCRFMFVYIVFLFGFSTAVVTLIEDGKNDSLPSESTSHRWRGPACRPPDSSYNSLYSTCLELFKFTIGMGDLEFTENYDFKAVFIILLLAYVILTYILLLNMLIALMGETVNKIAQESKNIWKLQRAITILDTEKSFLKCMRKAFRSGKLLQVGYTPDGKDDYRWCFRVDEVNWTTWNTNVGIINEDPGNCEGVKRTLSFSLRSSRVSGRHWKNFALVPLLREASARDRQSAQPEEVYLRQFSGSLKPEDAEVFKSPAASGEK
As to `CCc1ccc(Nc2nc(CN3CC(C)O[C@H](C)C3)nc3cc(-c4ncccc4C(F)(F)F)ccc23)cc1` (stereo in doubt) [Compound 653, (R,R)-[2-(2,6-Dimethyl-morpholin-4-ylmethyl)-7-(3-trifluoromethyl-pyridin-2-yl)-quinazolin-4-yl]-(4-ethyl-phenyl)-amine], the Ki – broadly, a measure of affinity in units of concentration, obtained from inhibition or displacement – was less than 1 µM.
For the compound `CC(C)(C)c1ccc(Nc2nc(CN3C[C@@H](O)C[C@@H]3C(=O)O)nc3cc(-c4ncccc4C(F)(F)F)ccc23)cc1` (stereo in doubt) [Compound 753, (R,S)-1-[4-(4-tert-Butyl-phenylamino)-7-(3-trifluoromethyl-pyridin-2-yl)-quinazolin-2-ylmethyl]-4-hydroxy-pyrrolidine-2-carboxylic acid], the Ki is less than 1 µM.
On to `CC(=O)OCc1nc(Nc2ccc(C(F)(F)F)cc2)c2ccc(-c3ncccc3C(F)(F)F)cc2n1` [Compound 9, Acetic acid 4-(4-trifluoromethyl-phenylamino)-7-(3-trifluoromethyl-pyridin-2-yl)-quinazolin-2-ylmethyl ester], for which the Ki was less than 1 µM.
The compound `FC(F)(F)c1ccc(Nc2nc(CCCOCc3ccccc3)nc3cc(-c4ncccc4C(F)(F)F)ccc23)cc1` [Compound 12, [2-(3-Benzyloxy-propyl)-7-(3-trifluoromethyl-pyridin-2-yl)-quinazolin-4-yl]-(4-trifluoromethyl-phenyl)-amine] had an inhibition constant (Ki) of less than 1 µM.
The result for `FC(F)(F)c1ccc(Nc2nc(CCCOCc3ccccc3)nc3cc(-c4ncccc4C(F)(F)F)ccc23)cn1` [Compound 13, [2-(3-Benzyloxy-propyl)-7-(3-trifluoromethyl-pyridin-2-yl)-quinazolin-4-yl]-(6-trifluoromethyl-pyridin-3-yl)-amine] reads less than 1 µM; that for `CC(C)(C)c1ccc(Nc2nc(CCCOCc3ccccc3)nc3cc(-c4ncccc4C(F)(F)F)ccc23)cn1` [Compound 15, [2-(3-Benzyloxy-propyl)-7-(3-trifluoromethyl-pyridin-2-yl)-quinazolin-4-yl]-(6-tert-butyl-pyridin-3-yl)-amine], less than 1 µM.
On to `CC(C)(C)c1ccc(Nc2nc(CCCO)nc3cc(-c4ncccc4C(F)(F)F)ccc23)cn1` [Compound 16, 3-[4-(6-tert-Butyl-pyridin-3-ylamino)-7-(3-trifluoromethyl-pyridin-2-yl)-quinazolin-2-yl]-propan-1-ol], for which the inhibition constant Ki is less than 1 µM.
Take `COC(=O)CCc1nc(Nc2ccc(C(F)(F)F)cc2)c2ccc(-c3ncccc3C(F)(F)F)cc2n1` [Compound 17, 3-[4-(4-Trifluoromethyl-phenylamino)-7-(3-trifluoromethyl-pyridin-2-yl)-quinazolin-2-yl]-propionic acid methyl ester]: the inhibition constant Ki is less than 1 µM.
The figure for `COC(=O)CCc1nc(Nc2ccc(C(F)(F)F)nc2)c2ccc(-c3ncccc3C(F)(F)F)cc2n1` [Compound 18, 3-[7-(3-Trifluoromethyl-pyridin-2-yl)-4-(6-trifluoromethyl-pyridin-3-ylamino)-quinazolin-2-yl]-propionic acid methyl ester] is less than 1 µM.
`CCOC(=O)Cc1nc(Nc2ccc(C(F)(F)F)cc2)c2ccc(-c3ncccc3C(F)(F)F)cc2n1` [Compound 20, [4-(4-Trifluoromethyl-phenylamino)-7-(3-trifluoromethyl-pyridin-2-yl)-quinazolin-2-yl]-acetic acid ethyl ester]: the Ki was less than 1 µM.
The figure for `CC(=O)OCc1nc(Nc2ccc(C(F)(F)F)nc2)c2ccc(-c3ncccc3C(F)(F)F)cc2n1` [Compound 21, Acetic acid 7-(3-trifluoromethyl-pyridin-2-yl)-4-(6-trifluoromethyl-pyridin-3-ylamino)-quinazolin-2-ylmethyl ester] is less than 1 µM; for `OCc1nc(Nc2ccc(C(F)(F)F)nc2)c2ccc(-c3ncccc3C(F)(F)F)cc2n1` [Compound 22, [7-(3-Trifluoromethyl-pyridin-2-yl)-4-(6-trifluoromethyl-pyridin-3-ylamino)-quinazolin-2-yl]-methanol] it is less than 1 µM.
The result for `CC(c1ccc(Nc2nc(COCc3ccccc3)nc3cc(-c4ncccc4C(F)(F)F)ccc23)cc1)C(F)(F)F` (stereo not drawn) [Compound 23, [2-Benzyloxymethyl-7-(3-trifluoromethyl-pyridin-2-yl)-quinazolin-4-yl]-[4-(2,2,2-trifluoro-1-methyl-ethyl)-phenyl]-amine] reads less than 1 µM; that for `FC(F)(F)c1ccc(Nc2nc(COCc3ccccc3)nc3cc(-c4ncccc4C(F)(F)F)ccc23)cn1` [Compound 25, [2-Benzyloxymethyl-7-(3-trifluoromethyl-pyridin-2-yl)-quinazolin-4-yl]-(6-trifluoromethyl-pyridin-3-yl)-amine], less than 1 µM.
The result for `FC(F)(F)c1ccc(Nc2nc(COCc3ccccc3)nc3cc(-c4ncccc4C(F)(F)F)ccc23)nc1` [Compound 26, [2-Benzyloxymethyl-7-(3-trifluoromethyl-pyridin-2-yl)-quinazolin-4-yl]-(5-trifluoromethyl-pyridin-2-yl)-amine] reads less than 1 µM; that for `FC(F)(F)Oc1ccc(Nc2nc(COCc3ccccc3)nc3cc(-c4ncccc4C(F)(F)F)ccc23)cc1` [Compound 27, [2-Benzyloxymethyl-7-(3-trifluoromethyl-pyridin-2-yl)-quinazolin-4-yl]-(4-trifluoromethoxy-phenyl)-amine], less than 1 µM.
The compound `O=S(=O)(c1ccc(Nc2nc(COCc3ccccc3)nc3cc(-c4ncccc4C(F)(F)F)ccc23)cc1)C(F)(F)F` [Compound 28, [2-Benzyloxymethyl-7-(3-trifluoromethyl-pyridin-2-yl)-quinazolin-4-yl]-(4-trifluoromethanesulfonyl-phenyl)-amine] showed a Ki of less than 1 µM.
The figure for `CCN(CC)CCOCc1nc(Nc2ccc(C(F)(F)F)nc2)c2ccc(-c3ncccc3C(F)(F)F)cc2n1` [Compound 29, [2-(2-Diethylamino-ethoxymethyl)-7-(3-trifluoromethyl-pyridin-2-yl)-quinazolin-4-yl]-(6-trifluoromethyl-pyridin-3-yl)-amine] is less than 1 µM.
Consider `FC(F)(F)c1ccc(Nc2nc(COCCN3CCCCC3)nc3cc(-c4ncccc4C(F)(F)F)ccc23)cn1` [Compound 30, [2-(2-Piperidin-1-yl-ethoxymethyl)-7-(3-trifluoromethyl-pyridin-2-yl)-quinazolin-4-yl]-(6-trifluoromethyl-pyridin-3-yl)-amine], for which the Ki is less than 1 µM.
The result for `CN1CCC(OCc2nc(Nc3ccc(C(F)(F)F)nc3)c3ccc(-c4ncccc4C(F)(F)F)cc3n2)CC1` [Compound 31, [2-(1-Methyl-piperidin-4-yloxymethyl)-7-(3-trifluoromethyl-pyridin-2-yl)-quinazolin-4-yl]-(6-trifluoromethyl-pyridin-3-yl)-amine] reads less than 1 µM.
The result for `COCc1nc(Nc2ccc(S(C)(=O)=O)cc2)c2ccc(-c3ncccc3C(F)(F)F)cc2n1` [Compound 32, (4-Methanesulfonyl-phenyl)-[2-methoxymethyl-7-(3-trifluoromethyl-pyridin-2-yl)-quinazolin-4-yl]-amine] reads less than 1 µM; that for `COCc1nc(Nc2ccc(S(=O)(=O)C(F)(F)F)cc2)c2ccc(-c3ncccc3C(F)(F)F)cc2n1` [Compound 35, [2-Methoxymethyl-7-(3-trifluoromethyl-pyridin-2-yl)-quinazolin-4-yl]-(4-trifluoromethanesulfonyl-phenyl)-amine], less than 1 µM.
The result for `COCc1nc(Nc2ccc(C(C)(C)COC)cc2)c2ccc(-c3ncccc3C(F)(F)F)cc2n1` [Compound 36, [4-(2-Methoxy-1,1-dimethyl-ethyl)-phenyl]-[2-methoxymethyl-7-(3-trifluoromethyl-pyridin-2-yl)-quinazolin-4-yl]-amine] reads less than 1 µM; that for `COCc1nc(Nc2ccc(S(=O)(=O)NC(C)(C)C)cc2)c2ccc(-c3ncccc3C(F)(F)F)cc2n1` [Compound 37, N-tert-Butyl-4-[2-methoxymethyl-7-(3-trifluoromethyl-pyridin-2-yl)-quinazolin-4-ylamino]-benzenesulfonamide], less than 1 µM.
Regarding `CC(C)(C)NS(=O)(=O)c1ccc(Nc2nc(COCc3ccccc3)nc3cc(-c4ncccc4C(F)(F)F)ccc23)cc1` [Compound 38, 4-[2-Benzyloxymethyl-7-(3-trifluoromethyl-pyridin-2-yl)-quinazolin-4-ylamino]-N-tert-butyl-benzenesulfonamide], the inhibition constant (Ki) was less than 1 µM.
The figure for `CS(=O)(=O)c1ccc(Nc2nc(COCc3ccccc3)nc3cc(-c4ncccc4C(F)(F)F)ccc23)cc1` [Compound 40, [2-Benzyloxymethyl-7-(3-trifluoromethyl-pyridin-2-yl)-quinazolin-4-yl]-(4-methanesulfonyl-phenyl)-amine] is less than 1 µM.
The figure for `CC(C)(C#N)c1ccc(Nc2nc(COCc3ccccc3)nc3cc(-c4ncccc4C(F)(F)F)ccc23)cc1` [Compound 41, 2-{4-[2-Benzyloxymethyl-7-(3-trifluoromethyl-pyridin-2-yl)-quinazolin-4-ylamino]-phenyl}-2-methyl-propionitrile] is less than 1 µM; for `COCC(C)(C)c1ccc(Nc2nc(COCc3ccccc3)nc3cc(-c4ncccc4C(F)(F)F)ccc23)cc1` [Compound 42, [2-Benzyloxymethyl-7-(3-trifluoromethyl-pyridin-2-yl)-quinazolin-4-yl]-[4-(2-methoxy-1,1-dimethyl-ethyl)-phenyl]-amine] it is less than 1 µM.
`CC(C)(C)c1ccc(Nc2nc(COCc3ccccc3)nc3cc(-c4ncccc4C(F)(F)F)ccc23)cc1` [Compound 43, [2-Benzyloxymethyl-7-(3-trifluoromethyl-pyridin-2-yl)-quinazolin-4-yl]-(4-tert-butyl-phenyl)-amine] registered an inhibition constant (Ki) of less than 1 µM.
The compound `CS(=O)(=O)N1CCc2cc(Nc3nc(COCc4ccccc4)nc4cc(-c5ncccc5C(F)(F)F)ccc34)ccc21` [Compound 44, [2-Benzyloxymethyl-7-(3-trifluoromethyl-pyridin-2-yl)-quinazolin-4-yl]-(1-methanesulfonyl-2,3-dihydro-1H-indol-5-yl)-amine] showed a Ki of less than 1 µM.
